# Experimental data published in DBAASP.
# Legend:
# Experiment in all cases: ≥ marks a high value that may be exact or a test limit, other limits are often not marked, values filed in µg/mL are converted to µM
# [1] = test system: Escherichia coli NBRC 14237
# [2] = test system: Micrococcus luteus NBRC 12708
# [3] = test system: Pseudomonas aeruginosa NBRC 12582
# [4] = test system: Staphylococcus aureus NBRC 12732
# Candida glabrata 090902 = test system: Candida glabrata 090902
# [5] = test system: Enterococcus faecalis 981
# [6] = test system: Nocardia asteroides 201118
# [7] = test system: Psychrobacter faecalis X29
# [8] = test system: Staphylococcus aureus ATCC 25923
# [9] = test system: Escherichia coli ATCC 25922
# [10] = test system: Klebsiella pneumoniae ATCC 700603
# [11] = test system: Pseudomonas aeruginosa ATCC 27853
# [12] = test system: Pseudomonas aeruginosa PA006
# [13] = test system: Pseudomonas aeruginosa PAO1
# [14] = test system: Pseudomonas aeruginosa Pa1-SA2
# [15] = test system: Pseudomonas aeruginosa Pa4-SA2
# [16] = test system: Salmonella enterica subsp. enterica serovar Typhimurium ATCC 14028
# [17] = test system: Staphylococcus aureus ATCC 29313
# Bacillus cereus = test system: Bacillus cereus
# Bacillus subtilis = test system: Bacillus subtilis
# [18] = test system: Candida albicans CCM 8186
# [19] = test system: Candida glabrata CCM 8270
# Candida krusei CCM 8271 = test system: Candida krusei CCM 8271
# [20] = test system: Candida parapsilosis CCM 8260
# [21] = test system: Candida tropicalis CCM 8264
# [22] = test system: Erwinia amylovora PMV 6076
# [23] = test system: Escherichia coli PCM 2057
# [24] = test system: Fusobacterium nucleatum ATCC 10953
# [25] = test system: Porphyromonas gingivalis ATCC 33277
# [26] = test system: Pseudomonas aeruginosa PCM 499
# [27] = test system: Pseudomonas syringae pv. actinidiae Psa3700.1.1
# [28] = test system: Pseudomonas syringae pv. syringae EPS 94
# [29] = test system: Staphylococcus aureus PCM 2054
# [30] = test system: Staphylococcus epidermidis PCM 2118
# [31] = test system: Xanthomonas arboricola pv. pruni CFBP 5563
# [32] = test system: Xanthomonas campestris pv. Vesicatoria 2133-2
# [33] = test system: Xanthomonas fragariae Xf349-9A
# [34] = test system: Acinetobacter baumannii CICC 22934
# Bacillus cereus AS1.126 = test system: Bacillus cereus AS1.126
# [35] = test system: Enterobacter cloacae CGMCC 1.58
# [36] = test system: Enterococcus faecalis CGMCC 1.595
# [37] = test system: Enterococcus faecium CGMCC 1.2334
# Escherichia coli AS1.349 = test system: Escherichia coli AS1.349
# [38] = test system: Klebsiella aerogenes CGMCC 1.876
# [39] = test system: Klebsiella pneumoniae subsp. pneumoniae CGMCC 1.176
# [40] = test system: Lactococcus lactis AS1.1690
# [41] = test system: Proteus mirabilis CICC 22931
# [42] = test system: Pseudomonas aeruginosa CGMCC 1.860
# [43] = test system: Staphylococcus aureus AS1.72
smiles,measurement,setting,value
CC[C@H](C)[C@H](NC(=O)[C@@H](N)Cc1ccccc1)C(=O)NCC(=O)N[C@@H](C)C(=O)N[C@@H](CC(C)C)C(=O)N[C@@H](CC(C)C)C(=O)NCC(=O)N1CCC[C@H]1C(=O)N[C@@H](CC(C)C)C(=O)N[C@@H](CC(C)C)C(=O)N[C@@H](CC(N)=O)C(=O)N[C@@H](CC(C)C)C(=O)N[C@@H](CC(C)C)C(=O)N[C@@H](CCCCN)C(N)=O [FIGALLGPLLNLLK],MIC,[1],≥ 50 µM
same,MIC,[2],12.5 µM
same,MIC,[3],≥ 50 µM
same,MIC,[4],12.5 µM
CC[C@H](C)[C@H](NC(=O)[C@H](CC(C)C)NC(=O)CNC(=O)[C@@H]1CCCN1C(=O)[C@H](CC(C)C)NC(=O)[C@@H](N)Cc1ccccc1)C(=O)N[C@@H](CCCCN)C(=O)N[C@@H](C)C(=O)N[C@@H](C)C(=O)N[C@H](C(=O)NCC(=O)N[C@H](C(=O)NCC(=O)N[C@@H](CO)C(=O)N[C@H](C(=O)N[C@H](C(=O)N[C@@H](CC(C)C)C(=O)N[C@H]1CSSC[C@@H](C(=O)O)NC(=O)[C@H](CCCCN)NC(=O)[C@H](CCCCN)NC(=O)[C@H]([C@@H](C)O)NC(=O)[C@H]([C@@H](C)CC)NC(=O)[C@H](CCCCN)NC1=O)[C@@H](C)CC)[C@@H](C)O)C(C)C)C(C)C [FLPGLIKAAVGVGSTILCKITKKC],MIC,Candida glabrata 090902,12.5 µM
same,MIC,[5],6.3 µM
same,MIC,[6],6.3 µM
same,MIC,[7],≥ 50 µM
same,MIC,[8],12.5 µM
CC[C@H](C)[C@H](NC(=O)[C@H](C)NC(=O)[C@H](Cc1cnc[nH]1)NC(=O)[C@H](C)NC(=O)[C@@H](NC(=O)[C@H](CC(C)C)NC(=O)[C@H](CC(=O)O)NC(=O)[C@H](CCCCN)NC(=O)CNC(=O)[C@H](C)NC(=O)CNC(=O)[C@H](CCCCN)NC(=O)[C@@H](NC(=O)[C@@H](NC(=O)[C@H](CC(=O)O)NC(=O)[C@@H](NC(=O)[C@@H](NC(=O)CN)C(C)C)[C@@H](C)CC)[C@@H](C)CC)[C@@H](C)CC)[C@@H](C)CC)C(=O)NCC(=O)N[C@@H](CCCCN)C(=O)N[C@@H](CC(C)C)C(=O)N[C@@H](C)C(=O)N[C@@H](CCC(=O)O)C(=O)N[C@@H](CCCCN)C(=O)N[C@H](C(N)=O)C(C)C [GVIDIIKGAGKDLIAHAIGKLAEKV],MIC,[9],316 µM
same,MIC,[10],> 316 µM
same,MIC,[11],> 202 µM
same,MIC,[12],6.32 µM
same,MIC,[13],202 µM
same,MIC,[14],≥ 50.6 µM
same,MIC,[15],25.3 µM
same,MIC,[16],> 316 µM
same,MIC,[17],≥ 316 µM
CC(C)[C@H](NC(=O)[C@H](Cc1c[nH]c2ccccc12)NC(=O)[C@H](Cc1ccccc1)NC(=O)[C@@H](NC(=O)[C@@H](NC(=O)[C@H](CCCCN)NC(=O)[C@@H](N)CCCCN)C(C)C)C(C)C)C(=O)N[C@@H](CCCCN)C(=O)N[C@@H](Cc1ccccc1)C(=O)N[C@@H](CCCCN)C(N)=O [KKVVFWVKFK],MIC,Bacillus cereus,≥ 38.2 µM
same,MIC,Bacillus subtilis,5.96 µM
same,MIC,[18],5.96 µM
same,MIC,[19],11.9 µM
same,MIC,Candida krusei CCM 8271,5.96 µM
same,MIC,[20],1.53 µM
same,MIC,[21],1.53 µM
same,MIC,[22],8.8 µM
same,MIC,[23],5.96 µM
same,MIC,[24],11.9 µM
same,MIC,[25],≥ 95.5 µM
same,MIC,[26],19.1 µM
same,MIC,[27],2.23 µM
same,MIC,[28],8.8 µM
same,MIC,[29],19.1 µM
same,MIC,[30],5.96 µM
same,MIC,[31],1.13 µM
same,MIC,[32],8.8 µM
same,MIC,[33],4.38 µM
CC(C)C[C@H](NC(=O)[C@H](CCCCN)NC(=O)[C@H](CCCN=C(N)N)NC(=O)[C@H](Cc1cnc[nH]1)NC(=O)[C@H](C)NC(=O)[C@H](CCCN=C(N)N)NC(=O)[C@H](Cc1cnc[nH]1)NC(=O)[C@H](CC(C)C)NC(=O)[C@H](Cc1ccccc1)NC(=O)[C@H](CCCN=C(N)N)NC(=O)[C@H](CCCN=C(N)N)NC(=O)[C@H](CC(C)C)NC(=O)[C@H](Cc1cnc[nH]1)NC(=O)[C@H](CCCN=C(N)N)NC(=O)[C@H](CC(C)C)NC(=O)[C@@H](NC(=O)[C@H](CCCCN)NC(=O)[C@@H](N)CO)C(C)C)C(=O)O [SKVLRHLRRFLHRAHRKL],MIC,[34],≥ 100 µM
same,MIC,Bacillus cereus AS1.126,1.56 µM
same,MIC,[35],≥ 100 µM
same,MIC,[36],3.13 µM
same,MIC,[37],3.13 µM
same,MIC,Escherichia coli AS1.349,≥ 100 µM
same,MIC,[38],≥ 100 µM
same,MIC,[39],≥ 100 µM
same,MIC,[40],3.13 µM
same,MIC,[41],≥ 100 µM
same,MIC,[42],≥ 100 µM
same,MIC,[43],2.34 µM
